Patent US20240041042A1, “1-(PYRIDYL)-5-AZINYLPYRAZOLE DERIVATIVES, AND THEIR USE FOR CONTROL OF UNDESIRED PLANT GROWTH” (Bayer Aktiengesellschaft, priority 2020, published 2024)

Key:
Type in all cases: in vivo
[1] = test system: Pharbitis purpurea (PHBPU); assay: Post-emergence herbicidal action against PHBPU
Procedure, shortened: (§1)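 Greenhouse plants sprayed at the one-leaf stage, 2–3 weeks after sowing, with WP or EC formulations plus 0.5% additive at 600 l/ha water. Activity rated visually after about 3 weeks versus untreated controls (100% = dead, 0% = like control), at 320 g/ha or lower.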

[2] = test system: Abutilon theophrasti (ABUTH); assay: Post-emergence herbicidal action against ABUTH; settings: visual rating about 3 weeks after treatment vs untreated controls (100% = plants have died, 0% = like control plants)
Procedure, shortened: as §1

[3] = test system: Alopecurus myosuroides (ALOMY); assay: Post-emergence herbicidal action against ALOMY; settings: visual rating about 3 weeks after treatment vs untreated controls (100% = plants have died, 0% = like control plants)
Procedure, shortened: as §1

Oryza sativa (ORYSA) = settings: crop plant compatibility, 20 g/ha, effect vs untreated controls
Procedure, shortened: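 Visual rating (% effect vs. untreated plants; 100% = plant death) made about 3 weeks after treatment. Plants had been sprayed at one-leaf stage, 2–3 weeks post-sowing, with aqueous WP/EC preparations containing 0.5% additive, 600 l/ha water volume; a, b, c mark dose levels.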

[4] = test system: Polygonum convolvulus (POLCO); assay: Post-emergence herbicidal action against POLCO
Procedure, shortened: as §1

[5] = test system: Amaranthus retroflexus (AMARE); assay: Post-emergence herbicidal action against AMARE
Procedure, shortened: as §1

[6] = test system: Matricaria inodora (MATIN); assay: Post-emergence herbicidal action against MATIN
Procedure, shortened: as §1

Setaria viridis (SETVI) = assay: Post-emergence herbicidal action against SETVI
Procedure, shortened: as §1

[7] = test system: Echinochloa crus-galli (ECHCG); assay: Post-emergence herbicidal action against ECHCG
Procedure, shortened: as §1

Avena fatua (AVEFA) = assay: Post-emergence herbicidal action against AVEFA; settings: visual rating about 3 weeks after treatment
Procedure, shortened: as §1

[8] = test system: Verconica persica (VERPE); assay: Post-emergence herbicidal action against VERPE
Procedure, shortened: as §1

Viola tricolor (VIOTR) = assay: Post-emergence herbicidal action against VIOTR
Procedure, shortened: as §1

Lolium rigidum (LOLRI) = assay: Post-emergence herbicidal action against LOLRI
Procedure, shortened: as §1

[9] = test system: Digitaria sanguinalis (DIGSA); assay: Post-emergence herbicidal action against DIGSA; settings: visual rating about 3 weeks after treatment
Protocol: Seeds of monocotyledonous and dicotyledonous weeds and crop plants are placed in sandy loam in plastic or organic planting pots, covered with soil and cultivated in a greenhouse under controlled growth conditions. 2 to 3 weeks after sowing, the test plants are treated at the one-leaf stage. The compounds of the invention, formulated in the form of wettable powders (WP) or as emulsion concentrates (EC), are then sprayed onto the green parts of the plants as aqueous suspension or emulsion with addition of 0.5% additive at a water application rate of 600 l/ha (converted). After the test plants have been kept in the greenhouse under optimum growth conditions for about 3 weeks, the activity of the preparations is rated visually in comparison to untreated controls. For example, 100% activity=the plants have died, 0% activity=like control plants.
Tables B1 to B13 below show the effects of selected compounds of the general formula (I) according to Table 1 on various harmful plants and at an application rate corresponding to 320 g/ha or lower, which were obtained by the experimental procedure mentioned above. The appendices “a”, “b” and “c” give differentiation by dosage used with otherwise the same harmful plants tested.

[10] = 80 g/ha, visual rating about 3 weeks after treatment vs untreated controls (100% = plants have died, 0% = like control plants)
[11] = 320 g/ha, visual rating about 3 weeks after treatment

Structure (SMILES)	Post-emergence action against PHBPU in % ([1]; dosage 80 g/ha)	Post-emergence action against PHBPU in % ([1]; dosage 320 g/ha)	Post-emergence action against ABUTH in % ([2]; 320 g/ha)	Post-emergence action against ALOMY in % ([3]; 320 g/ha)	Post-emergence action against ORYSA in % (Oryza sativa (ORYSA))	Post-emergence action against POLCO in % ([4]; dosage 320 g/ha)	Post-emergence action against AMARE in % [5, 11]	Post-emergence action against MATIN in % ([6]; dosage 80 g/ha)	Post-emergence action against MATIN in % ([6]; dosage 320 g/ha)	Post-emergence action against SETVI in % (Setaria viridis (SETVI); dosage 80 g/ha)	Post-emergence action against SETVI in % (Setaria viridis (SETVI); dosage 320 g/ha)	Post-emergence action against ECHCG in % ([7]; dosage 80 g/ha)	Post-emergence action against ECHCG in % ([7]; dosage 320 g/ha)	Post-emergence action against AVEFA in % (Avena fatua (AVEFA); 80 g/ha)	Post-emergence action against AVEFA in % (Avena fatua (AVEFA); 320 g/ha)	Post-emergence action against VERPE in % ([8]; 320 g/ha, VERPE)	Post-emergence action against VERPE in % ([8]; dosage 80 g/ha)	Post-emergence action against VIOTR in % (Viola tricolor (VIOTR); 80 g/ha)	Post-emergence action against VIOTR in % (Viola tricolor (VIOTR); 320 g/ha)	Post-emergence action against LOLRI in % (Lolium rigidum (LOLRI); dosage 320 g/ha)	other results
CCOC(=O)[C@@H](C)Oc1nn(-c2ncccc2F)c(-c2cncc(F)c2)c1Br [Example I-227]	90%	100%	90%	90%	0%	90%	90%	80%	90%	90%	90%	90%	100%	90%	90%	90%	90%	90%	90%	90%	Post-emergence action against ABUTH in % ([2]; 80 g/ha): 90%; Post-emergence action against ALOMY in % ([3]; 80 g/ha): 80%; Post-emergence action against POLCO in % ([4]; dosage 80 g/ha): 90%; Post-emergence action against AMARE in % [5, 10]: 90%; Post-emergence action against LOLRI in % (Lolium rigidum (LOLRI); dosage 80 g/ha): 80%; Post-emergence action against DIGSA in % ([9]; 80 g/ha): 80%; Post-emergence action against DIGSA in % ([9]; 320 g/ha): 90%
COC(=O)[C@@H](C)Oc1nn(-c2ncccc2F)c(-c2cncc(F)c2)c1Cl [Example I-146]	90%	90%	90%	90%	0%	90%	90%	90%	90%	90%	90%	90%	90%	90%	90%	90%	90%	90%	90%	90%	Post-emergence action against ABUTH in % ([2]; 80 g/ha): 80%; Post-emergence action against POLCO in % ([4]; dosage 80 g/ha): 80%; Post-emergence action against AMARE in % [5, 10]: 90%; Post-emergence action against DIGSA in % ([9]; 320 g/ha): 90%
CCOC(=O)[C@@H](C)Oc1nn(-c2ncccc2F)c(-c2cncc(F)c2)c1C1CC1 [Example I-172]	80%	90%	80%	90%	20%	80%	80%	90%	90%	80%	80%	80%	90%	80%	90%	90%	80%	80%	90%	90%	Post-emergence action against ALOMY in % ([3]; 80 g/ha): 90%; Post-emergence action against LOLRI in % (Lolium rigidum (LOLRI); dosage 80 g/ha): 90%; Post-emergence action against DIGSA in % ([9]; 80 g/ha): 80%; Post-emergence action against DIGSA in % ([9]; 320 g/ha): 90%
